Measurements published in patent US11965810B2, “Multiplexed on-chip impedance cytometry system and method” (UNIVERSITY OF VIRGINIA PATENT FOUNDATION, priority 2018, dated 2024).
“Also recorded” adds a separate entry of the source.

Key:
[1] = system: cells (cell cycle phase); experiment: Cell cycle phase analysis by flow cytometry after CPT treatment; format: cell-based; details: FIG. 16
Description: Quantifying the proportion of cells in each phase of a cell cycle, including mitotic phases is widely carried out by flow cytometry using a stoichiometric fluorescent stain for DNA that reports the cells' position within the G1, S and G2 phases of the cell cycle. However, these stains are not compatible with live cell analysis.
(§1) FIGS. 16A, 16D, 16G, and 16J, corresponding to subpanel (a), (d), (g), and (j) are from flow cytometry, while the analogous impedance cytometry plots are in FIGS. 16B, 16C, 16E, 16F, 16H, 16I, 16K, and 16L (corresponding to subpanel (b) and (c), (e) and (f), (h) and (i), and (k) and (l)), respectively.
(§2) As per FIG. 16, indeed, CPT treatment at 5 nM and 10 nM levels increases the proportion of the sum of S and G2 phase cells, which can be detected based on the proportion of cells in the high impedance phase contrast (ϕZ contrast) region.

[2] = system: cells (cell cycle phase); experiment: Cell cycle phase assessment by impedance cytometry (ϕZ contrast) after CPT treatment; format: cell-based; details: FIG. 16
Description: FIG. 16 illustrates that the exemplary impedance contrast method and system can be used to detect lineage of cells based on differences of phases of cell cycle in accordance with an illustrative embodiment. That is, differences in electrophysiology between cells in G1 phase versus those with S and G2 phase can be detected using the phase contrast metric that is sensitive to interior conductivity, which can be an indicator of nucleus size (i.e., cell cycle phase/stage).
In FIG. 16, it can be observed that increasing the proportion of cells in the G2 phase increases the proportion of cells in the high impedance phase contrast (ϕZ contrast) region between 5 nM and 10 nM CPT treatment, whereas lowering the proportion of cells in G2 phase by […] CPT treatment lowers the proportion of cells in the high impedance phase contrast (ϕZ contrast) region.
as §1, §2

[3] = system: PDXs of 608; experiment: Impedance phase contrast assessment of drug sensitivity, Gemcitabine-treated PDXs of 608; format: cell-based, human; details: standard 2D cell culture plate, right from Day 1, more clearly Day 2-5, FIG. 15A
Description: (§3) In this context, since alterations in subcellular electrophysiology in response to drug-induced apoptosis or autophagy occur earlier in the cell cycle than apparent with staining-based or imaging approaches, the exemplary method and system in using electrophysiology for kinetic monitoring may be used to track differences in stochastic cell sensitivity to various drugs. Additionally, the exemplary electrophysiology method and system require no sample preparation steps for staining or image contrast enhancement, thereby preserving the state of fragile apoptotic cells. […] As a non-limiting example, sensitivity of the electrophysiology of patient-derived pancreatic tumor xenografts (PDXs) to the chemotherapy drug gemcitabine may be used to illustrate the assay. Currently, treatment with folfirinox drug combination is the preferred first-line therapy for pancreatic cancer, but a significant fraction of patients cannot tolerate the overall drug cytotoxicity. […] On the other hand, for Control (untreated) versus Gemcitabine-treated PDXs of mPanc (FIG. 15B), the alterations are only modest over all five days. Indeed, the drug sensitivity determination based on tumor size takes 5 days.

[4] = system: PDXs of mPanc; experiment: Impedance phase contrast assessment of drug sensitivity, Gemcitabine-treated PDXs of mPanc; format: cell-based, human; details: standard 2D cell culture plate, over all five days, FIG. 15B
Description: as §3

[5] = system: PDXs of mPanc; details: PDX mPanc; cited from earlier work
[6] = system: PDXs of 608; details: PDX 608; cited from earlier work

Row | Structure (SMILES) | proportion of the sum of S and G2 phase cells ([1]; CPT treatment at 5 nM) | proportion of the sum of S and G2 phase cells ([1]; CPT treatment at 10 nM) | proportion of cells in S phase ([1]; CPT treatment at 100 nM) | proportion of cells in the G2 phase ([1]; CPT treatment at 100 nM) | proportion of cells in the high impedance phase contrast (ϕZ contrast) region ([2]; CPT treatment at 100 nM) | proportion of cells in the high impedance phase contrast (ϕZ contrast) region ([2]; between 5 nM and 10 nM CPT treatment) | impedance phase contrast, Control (untreated) versus Gemcitabine-treated [3] | impedance phase contrast, Control (untreated) versus Gemcitabine-treated [4] | known sensitivity to gemcitabine [5] | known sensitivity to gemcitabine [6]
1 | CC[C@@]1(O)C(=O)OCc2c1cc1n(c2=O)Cc2cc3ccccc3nc2-1 [CPT] | increases | increases | increasing | lowering; also recorded: lowers | lowers; also recorded: substantive decrease | increases | – | – | – | –
2 | Nc1ccn([C@@H]2O[C@H](CO)[C@@H](O)C2(F)F)c(=O)n1 [Gemcitabine, gemcitabine] | – | – | – | – | – | – | statistically significant differences | only modest | relatively more resistant | sensitive
